Assays:
[1] = in vivo; conditions: Sprague-Dawley, rat, iv, 5 mg/kg
[2] = in vivo; conditions: Sprague-Dawley, rat
[3] = in vivo; conditions: Sprague-Dawley, rat, po, 10 mg/kg
[4] = Metabolic stability in cynomolgus monkey hepatocytes; assay type: ADME, cell-based, Macaca fascicularis, Hepatocyte
[5] = test system: Hepatocyte; test: Metabolic stability in human hepatocytes; assay type: ADME, cell-based
[6] = test system: Hepatocyte; test: Metabolic stability in Sprague-Dawley rat hepatocytes; assay type: ADME, cell-based
[7] = Metabolic stability in rhesus monkey hepatocytes; assay type: ADME, cell-based, Macaca mulatta, Hepatocyte
[8] = Metabolic stability in Beagle dog hepatocytes; assay type: ADME, cell-based, Canis lupus familiaris, Hepatocyte
[9] = Volume of distribution at steady state in Sprague-Dawley rat at 10 mg/kg, po and 5 mg/kg, iv; assay type: ADME, organism-based; conditions: in vivo, read-out: Vdss
[10] = Clearance in Beagle dog at 1 mg/kg, po and 0.5 mg/kg, iv; assay type: ADME, organism-based, Canis lupus familiaris; conditions: in vivo
[11] = Volume of distribution at steady state in Beagle dog at 1 mg/kg, po and 0.5 mg/kg, iv; assay type: ADME, organism-based, Canis lupus familiaris; conditions: in vivo, read-out: Vdss
[12] = Oral bioavailability in rhesus monkey at 1 mg/kg; assay type: ADME, organism-based, Macaca mulatta; conditions: in vivo
[13] = Terminal half life in cynomolgus monkey at 1 mg/kg, po and 0.5 mg/kg, iv; assay type: ADME, organism-based, Macaca fascicularis; conditions: in vivo
[14] = Volume of distribution at steady state in cynomolgus monkey at 1 mg/kg, po and 0.5 mg/kg, iv; assay type: ADME, organism-based, Macaca fascicularis; conditions: in vivo, read-out: Vdss
[15] = Clearance in cynomolgus monkey at 1 mg/kg, po and 0.5 mg/kg, iv; assay type: ADME, organism-based, Macaca fascicularis; conditions: in vivo
[16] = Oral bioavailability in cynomolgus monkey at 1 mg/kg; assay type: ADME, organism-based, Macaca fascicularis; conditions: in vivo
[17] = Volume of distribution at steady state in rhesus monkey at 1 mg/kg, po and 0.5 mg/kg, iv; assay type: ADME, organism-based, Macaca fascicularis; conditions: cynomolgus monkey, in vivo, read-out: Vdss
[18] = Terminal half life in Beagle dog at 1 mg/kg, po and 0.5 mg/kg, iv; assay type: ADME, organism-based, Canis lupus familiaris; conditions: in vivo
[19] = Terminal half life in rhesus monkey at 1 mg/kg, po and 0.5 mg/kg, iv; assay type: ADME, organism-based, Macaca fascicularis; conditions: cynomolgus monkey, in vivo
[20] = Oral bioavailability in Beagle dog at 1 mg/kg; assay type: ADME, organism-based, Canis lupus familiaris; conditions: in vivo
[21] = Clearance in rhesus monkey at 1 mg/kg, po and 0.5 mg/kg, iv; assay type: ADME, organism-based, Macaca fascicularis; conditions: cynomolgus monkey, in vivo

Row | SMILES | clearance [1] | half-life [2] | bioavailability [3] | Stability [4] | Stability [5] | Stability [6] | Stability [7] | Stability [8] | further results
1 | CN([C@@H]1CCc2c(CC(=O)O)c3cccc(F)c3n2C1)S(=O)(=O)c1ccc(F)cc1 | 0.4 mL/min/kg | 16 h | 62% | – | – | – | – | – | –
2 | CN([C@@H]1CCc2c(CC(=O)O[C@@H]3O[C@H](C(=O)O)[C@@H](O)[C@H](O)[C@H]3O)c3ccccc3n2C1)S(=O)(=O)c1ccc(F)cc1 | – | – | – | Stable | Stable | Stable | Stable | Stable | –
3 | CN([C@@H]1CCc2c(CC(=O)O)c3ccccc3n2C1)S(=O)(=O)c1ccc(F)cc1 [MK-7246] | 2.2 mL/min/kg | 5.6 h | 107% | Stable | Stable | Stable | Stable | Stable | Vd [9]: 0.98 L/kg; clearance [10]: 15 mL/min/kg; Vd [11]: 2.3 L/kg; bioavailability [12]: 57%; half-life [13]: 11 h; Vd [14]: 0.5 L/kg; clearance [15]: 4.8 mL/min/kg; bioavailability [16]: 10%; Vd [17]: 2.6 L/kg; half-life [18]: 8.4 h; half-life [19]: 8.1 h; bioavailability [20]: 5.6%; clearance [21]: 6.9 mL/min/kg

From ChEMBL document CHEMBL1641519, “Discovery of MK-7246, a selective CRTH2 antagonist for the treatment of respiratory diseases” (Bioorg Med Chem Lett, 2011)
